The target in series [1] is T1, 17β-HSD10 (Homo sapiens, UniProt Q99714).
T1 construct: Histev (histidine tag with TEV site) (N, cleaved yes); made in house; host or cells: E. coli BL21-CodonPlus
T1 sequence (Q99714 1-261): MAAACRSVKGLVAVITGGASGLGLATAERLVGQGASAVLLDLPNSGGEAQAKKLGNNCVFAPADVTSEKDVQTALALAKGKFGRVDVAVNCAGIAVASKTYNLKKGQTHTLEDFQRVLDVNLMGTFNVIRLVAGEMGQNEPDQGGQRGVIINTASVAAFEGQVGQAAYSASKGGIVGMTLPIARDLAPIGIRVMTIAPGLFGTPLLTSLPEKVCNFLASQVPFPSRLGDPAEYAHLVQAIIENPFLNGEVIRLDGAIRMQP
The series is described as follows: Mechanism of action against the substrates NADH and AcetoAcetyl CoA. The series is classed as biochemical. The conditions noted are these: for mode of binding with respect to NADH: AcAc in excess at 800 μM; for mode of binding with respect to AcAc: excess of 100 μM NADH. As for the experimental part:
To determine the kinetics for acetoacetyl-CoA and the effect of 17β-HSD10 concentration upon reaction rate, a matrix titration experiment was set up. Previously determined conditions were used with a fixed concentration of 700 μM NADH and a starting concentration of up to 200 μM acetoacetyl-CoA. Doubling dilutions of acetoacetyl-CoA were then coupled with doubling dilutions of 17β-HSD10, which started with a maximum concentration of 40 nM. Data collected from the experiment was analysed using a standard template, from which reaction progress curves were analysed to calculate initial velocities and obtain Km values using the Michaelis-Menten equation (XLFit, ID Business Solutions).
To determine the kinetics for NADH and the effect of 17β-HSD10 concentration upon reaction rate a matrix titration experiment was set up. Previously determined conditions (Aitken et al. 2017, supra) were used, 120 μM acetoacetate and a starting concentration of up to 1000 μM NADH. Doubling dilutions of NADH were then coupled with doubling dilutions of 17β-HSD10, which started with a maximum concentration of 40 nM. Data were analysed as described previously (Aitken et al. 2017, supra).
Two compounds, ESC1002033 and ESC1002082, representative of the two different clusters were investigated for their mechanism of action against the substrates, NADH and AcetoAcetyl CoA (AcAc). The ESC inhibitors were tested as 12-point 1 in 1.5 dilution series with a maximal concentration of 2.5 μM.

In series [2] the target is T1, 17β-HSD10. Nature of the series: 17β-HSD10 (ABAD) enzyme inhibition assay, NADH oxidation read at 340 nm (primary screen and dose response). The series is classed as biochemical. The conditions noted are these: for EC50 / Max. Effect (%) / Hill Slope / Max. Fit / Min. Fit: recombinant 17βHSD10 enzyme assay; for Hill Slope / Max. Fit / Min. Fit: curve fit. A digest of the protocol: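 Screening used a 35 min room-temperature endpoint A340 read after compound (10 μM) and enzyme (2.5 nM, E. coli-expressed, His-tag removed) preincubated 15 min, then 100 μM NADH plus acetoacetyl-CoA added. Dose-response runs tracked absorbance kinetically 45 min; buffer pH 7.4 Tris with BSA, DTT.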

A short description of series [3]: Mouse hepatocyte stability. The series is classed as in vitro ADME. The conditions noted are these: for Heps Category: hepatocyte metabolism category, mouse; for Cl / half-life / k: mouse hepatocytes; for Cl: clearance; for k: k=absorption rate constant (so in the source). The arrangement: k: unit not given here. The source says: (§1) Table 5: Initial mouse hepatocyte stability and plasma protein binding experiments were undertaken on some of the best exemplars from the representative series with AG18051 a previously published 17β-HSD10 inhibitor (C. R. Kissinger et al., J. Mol. Biol., 342 (2004), p. 943; Lim, Y.-A., Grimm, A., Giese, M. PLoS ONE (2011), 6, e28887.) Ref: shown for comparison. Where k=absorption rate constant Cl=clearance, T1/2=half-life, Heps=hepatocyte metabolism, PPB=plasma protein binding.

Series [4] has as its target T2, 17β-HSD10 in HEK293 mts17β-HSD10 cells (Homo sapiens, UniProt Q99714).
T2 construct: expressed in transfected cells; host or cells: HEK293
T2 sequence (Q99714 1-261): T1 sequence (Q99714 1-261)
Nature of the series: (-)-CHANA enzyme activity cell based assay. Particulars: cellular 17β-HSD10, HEK 293 cells, (-)-CHANA probe. As for the experimental part: HEK293 mts17β-HSD10 cells were seeded at a density of 10,000 cells per well (100 μL, 96 well black plates) in phenol-red free media (10% FBS, 1 mM sodium pyruvate, 100 units penicillin, 0.1 mg/mL streptomycin and 2 mM L-glutamine). After 24 hours the media was removed from the cells and replaced with fresh media containing varying concentrations of compound (100 μM-0.098 μM). The fluorogenic probe (-)-CHANA was then added to each well to give a final assay concentration of 20 μM. Fluorescence was immediately measured using a FLUOstar Optima microplate reader (excitation=380 nm, emission=520 nm, orbital averaging=3 mm) and the initial reaction monitored for 3-4 hours. IC50 was calculated from the control-subtracted triplicates using non-linear regression (four parameters) of GraphPad Prism 5 software. Final IC50 and SEM value was obtained as a mean of at least 3 independent measurements.
REF: (-)-CHANA, a Fluorogenic Probe for Detecting Amyloid Binding Alcohol Dehydrogenase HSD10 Activity in Living Cells Kirsty E. A. Muirhead, Mary Froemming, Xiaoguang Li, Kamil Musilek, Stuart J. Conway, Dalibor Sames, and Frank J. Gunn-Moore ACS Chemical Biology 2010 5 (12), 1105-1114DOI: 10.1021/cb100199m) to monitor the oxidative activity of 17β-HSD10 in living cells. […]

A short description of series [5]: Mouse plasma protein binding. The series is classed as in vitro ADME.
Excerpt: as §1

Series [6] addresses T1, 17β-HSD10. Nature of the series: Thermal shift analysis. The format is binding. The conditions noted are these: 20 μM compound, 1 mM NADH. As for the experimental part: Solutions containing compound at two concentrations (25 μM and 100 μM) added to assay buffer (50 mM Hepes, 0.5 M NaCl, pH 8.2, SYPRO orange 20 X, ±1 mM NADH) were plated in triplicate (25 μl per well) in MicroAmp 96-well plates (Thermo Fisher: 4346907). The plates were then sealed with optical grade sealing film (Thermo Fisher: 4311971) and loaded into a ViiA 7 RT-PCR machine ((Thermo Fisher: 4453534) (ramp speed 0.015° C./sec, 25-95° C.)). Data was exported to GraphPad PRISM and Tm values were calculated using the Boltzmann sigmoidal curve fit equation.
The ΔTm for one compound from each series is presented in FIG. 9 with a representative derivative plot of ESC1002033 and ESC1002082 in FIG. 9a.

The test system of series [7] is mtsABAD HEK293 cells. Nature of the series: Alamar Blue cell viability assay. The format is cell-based, human. Particulars: 50 μM compound, listed as ESC1002204-01. On the technique in general: Resazurin is reduced to fluorescent resorufin, in cell work by metabolically active cells.
For series [8], the system named is mtsABAD HEK293 cells. The series is described as follows: Lactate dehydrogenase (LDH) cytotoxicity assay. The format is cell-based, human. The conditions noted are these: 50 μM compound, listed as ESC1002204-01.
The mark [9] stands for this setting: Table 5, read-out: Mean ABAD pIC50 (converted).

Experimental findings from patent publication US20260132123A1, “ABAD INHIBITOR COMPOUNDS” (UNIVERSITY COURT OF THE UNIVERSITY OF ST ANDREWS, priority 2021, published 2026) are described below.

Like-named read-outs stand apart in the source and are kept apart here.

The term EC50 denotes the midpoint of the concentration-response curve. The term half-life denotes how long it takes for the measured level to halve. For orientation: ΔTm means the change in melting temperature against a reference sample.

`COc1ccc(-c2ccccc2C2CCCN2C(=O)c2sccc2C)cn1` (racemic) [ESC1002082, [2-[2-(6-methoxy-3-pyridyl)phenyl]pyrrolidin-1-yl]-(3-methyl-2-thienyl)methanone]: in series [1], the “mode of binding with respect to NADH” value was “non-competitively” and the “mode of binding with respect to AcAc” value is “competitively”. Also, the “17β-HSD10 pIC50” value in series [2] (17β-HSD10 dose response / inhibition assay) is 6.1. Moreover, the IC50 in series [2] (primary screening, resynthesized HTS hit compounds, read-out: ABAD plC50 (converted)) is 0.794 µM. Also, in series [2], the EC50 is 0.794 µM, the “Max. Effect (%)” value came out at 96%, the “Hill Slope” value came to 1.1 and the “Max. Fit” value stood at 98. Also, the “Min. Fit” value in series [2] is on record as 0.
For the molecule `O=C(c1sccc1Cl)N1CCC[C@H]1c1ccccc1-c1cccc(O)c1` (single isomer, unassigned) [ESC1002755], in series [3], the “Heps Category” value is “High”, the Cl stood at 105.8 ml/minute/g liver, the half-life is 3.14 min and the k amounted to 0.22. Moreover, the IC50 in series [2] (setting [9]) is 0.0186 µM. Also, in series [2], the EC50 was 0.02 µM, the “Max. Effect (%)” value turned out to be 95%, the “Hill Slope” value is 1 and the “Max. Fit” value amounted to 93. Besides, the “Min. Fit” value in series [2] was −2. Also, the “fold improvement in activity / potency” value in series [2] (relative to the parent compound of the sentence) came to 40 fold. The same molecule gave an EC50 in series [4] of 0.028 µM.
In the case of `O=C(c1[nH]ncc1Cl)N1CCC[C@H]1c1ccccc1-c1cccc(O)c1` (single isomer, unassigned) [ESC1002799], in series [3], the “Heps Category” value is “High”, the Cl was found to be 21.9 ml/minute/g liver, the half-life was 15.2 min and the k is 0.046. Besides, the “Mouse PPB (% free)” value in series [5] was 9.9 % free. Also, in series [2] (setting [9]), the IC50 is 0.11 µM. For the same molecule, in series [2], the EC50 was 0.155 µM, the “Max. Effect (%)” value is reported as 97%, the “Hill Slope” value is 1.1 and the “Max. Fit” value was 96. Also, the “Min. Fit” value in series [2] was −3.
In the case of `O=C(c1sccc1Cl)N1CCC[C@H]1c1ccccc1-c1cc(O)ccc1F` (single isomer, unassigned) [ESC1002842], in series [3], the “Heps Category” value is listed as “High”, the Cl stood at 83.1 ml/minute/g liver, the half-life stood at 4 min and the k turned out to be 0.17. The “Mouse PPB (% free)” value in series [5] stood at 3.4 % free. Also, the IC50 in series [2] (setting [9]) is 0.0347 µM. Moreover, in series [2], the EC50 was 0.0407 µM, the “Max. Effect (%)” value amounted to 102%, the “Hill Slope” value was 1.1 and the “Max. Fit” value turned out to be 98. Further, in series [2], the “Min. Fit” value is recorded as −3.
In the case of `CC(C)CN(C(=O)c1ccccc1F)c1cccc(N(C)Cc2cnc[nH]2)c1` [ESC1002033, 2-fluoro-N-[3-[1H-imidazol-5-ylmethyl(methyl)amino]phenyl]-N-isobutyl-benzamide], in series [3], the “Heps Category” value is listed as “Mod”, the Cl is 6.2 ml/minute/g liver and the k was 0.013. Moreover, in series [1], the “mode of binding with respect to NADH” value is “non-competitively” and the “mode of binding with respect to AcAc” value was “competitively”. Also, the “Mean ABAD pIC50” value in series [2] (Table 5) was 6.7. For the same molecule, in series [2], the EC50 is 0.2 µM, the “Max. Effect (%)” value came out at 99%, the “Hill Slope” value is 1 and the “Max. Fit” value was found to be 99. Besides, the “Min. Fit” value in series [2] is recorded as −3. In series [6], the ΔTm at 20 µM is 6.75 °C.
For `Cc1ncc(CN(C)c2cccc(N(CC(C)C)C(=O)c3ccccc3F)c2)[nH]1` [ESC1002204], in series [3], the “Heps Category” value was “High”, the Cl stood at 54 ml/minute/g liver, the half-life was determined as 6.16 min and the k is listed as 0.11. Further, the “Alamar Blue % Viability (50 μM Dose)” value in series [7] came to 88.836%. Also, in series [2], the “17β-HSD10 / ABAD activity in words (SAR discussion)” value is “only slightly reduced ABAD inhibition levels”, the EC50 was 0.398 µM, the “Max. Effect (%)” value was found to be 97% and the “Hill Slope” value stood at 1.2. In series [2], the “Max. Fit” value stood at 98 and the “Min. Fit” value came to 0. The IC50 in series [2] (setting [9]) is 0.398 µM. Besides, the “LDH % Toxicity (50 μM Dose)” value in series [8] was found to be 5.048%.
For `CC(C)CN(C(=O)c1c(F)cccc1F)c1cccc(N(C)Cc2c[nH]cn2)c1` [ESC1002456, 2,6-difluoro-N-[3-[1H-imidazol-4-ylmethyl(methyl)amino]phenyl]-N-isobutyl-benzamide], in series [3], the “Heps Category” value was “High”, the Cl worked out at 8.6 ml/minute/g liver and the k was found to be 0.018. Also, the “Mouse PPB (% free)” value in series [5] turned out to be 8.9 % free. For the same molecule, the “Mean ABAD pIC50” value in series [2] (Table 5) was determined as 6.86. Moreover, in series [2], the EC50 is 0.138 µM, the “Max. Effect (%)” value is recorded as 97%, the “Hill Slope” value amounted to 1.2 and the “Max. Fit” value was determined as 96. Moreover, the “Min. Fit” value in series [2] was 17.
Turning to `Cc1ccc(C(=O)N(CC(C)C)c2cccc(N(C)Cc3c[nH]cn3)c2)c(F)c1` [ESC1002575, 2-fluoro-N-[3-[1H-imidazol-4-ylmethyl(methyl)amino]phenyl]-N-isobutyl-4-methyl-benzam], in series [3], the “Heps Category” value is given as “Mod”, the Cl is given as 5.8 ml/minute/g liver and the k is 0.012. Besides, the “Mouse PPB (% free)” value in series [5] was determined as 7.6 % free. Also, the “Mean ABAD pIC50” value in series [2] (Table 5) stood at 6.57. In addition, in series [2], the EC50 was 0.269 µM, the “Max. Effect (%)” value is on record as 102%, the “Hill Slope” value was 1.3 and the “Max. Fit” value is listed as 101. Also, the “Min. Fit” value in series [2] was found to be 10.
